Assay results published in ChEMBL document CHEMBL6103670, “Development of Ethyl-Hydrazide-Based Selective Histone Deacetylase 6 (HDAC6) PROTACs” (ACS Med Chem Lett, 2025).

How the values were obtained:
[1] = biological target: Histone deacetylase 3/Nuclear receptor corepressor 2 (HDAC3/NCoR2) (Homo sapiens, UniProt O15379); assay: Inhibition of C-terminal His tagged human recombinant HDAC3 (1 to 428 end residues)/N-terminal GST-tagged human NcoR2 expressed in Sf9 insect cells using Z-Lys(Ac)-AMC as substrate preincubated for 60 mins followed by substrate addition and measured after 90 mins by fluorescence based microplate reader analysis
Chain of Histone deacetylase 3/Nuclear receptor corepressor 2 (HDAC3/NCoR2) (O15379 whole entry): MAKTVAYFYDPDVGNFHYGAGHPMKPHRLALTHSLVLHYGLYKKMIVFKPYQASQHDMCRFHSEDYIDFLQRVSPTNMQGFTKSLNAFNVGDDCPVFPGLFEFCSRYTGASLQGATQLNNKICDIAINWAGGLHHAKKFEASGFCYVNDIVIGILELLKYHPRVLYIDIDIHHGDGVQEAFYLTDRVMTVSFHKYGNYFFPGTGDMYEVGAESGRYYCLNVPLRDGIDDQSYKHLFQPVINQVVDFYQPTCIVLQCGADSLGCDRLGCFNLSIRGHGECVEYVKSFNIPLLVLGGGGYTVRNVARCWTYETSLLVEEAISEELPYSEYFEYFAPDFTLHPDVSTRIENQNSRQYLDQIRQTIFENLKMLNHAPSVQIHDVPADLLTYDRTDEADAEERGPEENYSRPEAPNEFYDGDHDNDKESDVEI
Chain of Histone deacetylase 3/Nuclear receptor corepressor 2 (HDAC3/NCoR2) (Q9Y618 whole entry, further chain): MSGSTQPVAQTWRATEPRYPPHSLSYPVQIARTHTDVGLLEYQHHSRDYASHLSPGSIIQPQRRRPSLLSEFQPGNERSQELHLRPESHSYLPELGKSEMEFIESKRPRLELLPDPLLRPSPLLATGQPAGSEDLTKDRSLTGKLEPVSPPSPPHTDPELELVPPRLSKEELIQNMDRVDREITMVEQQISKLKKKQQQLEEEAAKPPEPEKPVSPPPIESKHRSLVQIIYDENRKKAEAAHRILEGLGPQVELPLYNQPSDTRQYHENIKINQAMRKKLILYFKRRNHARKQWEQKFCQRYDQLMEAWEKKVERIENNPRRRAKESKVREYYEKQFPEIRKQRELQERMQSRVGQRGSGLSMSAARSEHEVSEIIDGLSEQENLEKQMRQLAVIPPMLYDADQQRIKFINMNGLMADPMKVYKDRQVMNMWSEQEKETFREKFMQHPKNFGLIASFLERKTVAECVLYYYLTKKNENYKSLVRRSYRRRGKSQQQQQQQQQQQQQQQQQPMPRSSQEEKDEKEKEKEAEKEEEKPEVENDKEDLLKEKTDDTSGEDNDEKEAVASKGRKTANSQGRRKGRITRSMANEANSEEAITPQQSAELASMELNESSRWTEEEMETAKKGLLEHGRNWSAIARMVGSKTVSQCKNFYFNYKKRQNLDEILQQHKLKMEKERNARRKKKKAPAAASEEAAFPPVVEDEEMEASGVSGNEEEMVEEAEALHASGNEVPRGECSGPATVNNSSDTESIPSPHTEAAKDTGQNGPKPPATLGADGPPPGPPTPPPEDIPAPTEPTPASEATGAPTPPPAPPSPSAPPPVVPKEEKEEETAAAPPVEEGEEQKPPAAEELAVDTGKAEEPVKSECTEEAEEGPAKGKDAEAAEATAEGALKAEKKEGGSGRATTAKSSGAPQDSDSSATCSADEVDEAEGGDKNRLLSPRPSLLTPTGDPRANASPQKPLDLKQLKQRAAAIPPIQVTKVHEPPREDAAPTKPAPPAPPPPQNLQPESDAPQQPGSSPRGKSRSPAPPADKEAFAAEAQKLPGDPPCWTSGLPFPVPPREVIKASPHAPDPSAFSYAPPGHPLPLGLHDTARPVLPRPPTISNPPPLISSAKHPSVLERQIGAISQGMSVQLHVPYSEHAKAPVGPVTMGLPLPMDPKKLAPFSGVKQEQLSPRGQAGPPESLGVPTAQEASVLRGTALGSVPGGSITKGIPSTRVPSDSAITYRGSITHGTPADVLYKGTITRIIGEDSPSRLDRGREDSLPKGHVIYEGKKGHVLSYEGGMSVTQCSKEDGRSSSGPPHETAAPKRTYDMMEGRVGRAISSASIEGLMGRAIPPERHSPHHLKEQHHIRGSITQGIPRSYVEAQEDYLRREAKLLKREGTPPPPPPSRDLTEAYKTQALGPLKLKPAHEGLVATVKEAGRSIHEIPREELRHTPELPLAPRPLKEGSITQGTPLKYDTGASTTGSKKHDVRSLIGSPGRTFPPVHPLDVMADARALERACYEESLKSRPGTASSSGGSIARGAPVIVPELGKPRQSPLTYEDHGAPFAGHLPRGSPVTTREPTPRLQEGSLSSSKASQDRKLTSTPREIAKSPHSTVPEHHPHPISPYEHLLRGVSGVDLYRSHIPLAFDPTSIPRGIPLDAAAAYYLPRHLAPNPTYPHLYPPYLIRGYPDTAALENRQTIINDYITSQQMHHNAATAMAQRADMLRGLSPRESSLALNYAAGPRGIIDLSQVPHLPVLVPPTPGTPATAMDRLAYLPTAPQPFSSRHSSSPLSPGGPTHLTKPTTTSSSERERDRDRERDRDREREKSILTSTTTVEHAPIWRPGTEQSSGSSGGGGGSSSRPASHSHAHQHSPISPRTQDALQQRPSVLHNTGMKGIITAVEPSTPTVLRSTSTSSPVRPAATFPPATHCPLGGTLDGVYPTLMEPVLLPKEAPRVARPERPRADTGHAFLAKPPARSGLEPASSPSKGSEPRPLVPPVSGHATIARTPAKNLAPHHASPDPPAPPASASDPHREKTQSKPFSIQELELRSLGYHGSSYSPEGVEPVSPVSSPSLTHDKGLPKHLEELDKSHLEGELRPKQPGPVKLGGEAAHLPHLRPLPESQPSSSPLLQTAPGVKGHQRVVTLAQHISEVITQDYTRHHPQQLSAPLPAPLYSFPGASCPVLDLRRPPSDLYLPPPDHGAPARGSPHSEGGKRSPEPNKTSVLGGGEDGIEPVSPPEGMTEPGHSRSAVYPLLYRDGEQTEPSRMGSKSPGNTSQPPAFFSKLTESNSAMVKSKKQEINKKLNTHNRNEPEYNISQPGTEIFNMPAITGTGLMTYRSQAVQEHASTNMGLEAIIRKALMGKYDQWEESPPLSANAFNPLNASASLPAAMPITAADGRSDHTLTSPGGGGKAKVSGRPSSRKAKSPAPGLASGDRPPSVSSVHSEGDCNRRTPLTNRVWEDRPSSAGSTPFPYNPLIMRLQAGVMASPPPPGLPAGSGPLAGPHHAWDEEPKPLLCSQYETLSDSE

[2] = Antiproliferative activity against human MM1.S cells assessed as cell viability incubated for 72 hrs by CellTiter-Glo assay; type: toxicity, cell-based
MM1.S = assay: Induction of degradation of HDAC6 in human MM1.S cells at 0.5 uM incubated for 24 hrs by immunoblot analysis relative to control; type: cell-based
[3] = Antiproliferative activity against human MM1.S cells assessed as cell viability at 50 uM incubated for 72 hrs by CellTiter-Glo assay relative to control; type: toxicity, cell-based; details: read-out: Activity

Compound: CCNNC(=O)c1ccc(CNC(=O)c2ccc(OCc3cn(CCOCCNc4cc5c(cc4F)C(=O)N(C4CCC(=O)NC4=O)C5=O)nn3)cc2)cc1 (configuration not stated)
- IC50 [1]: 332 nM
- IC50 at 72 h [2]: 24900 nM

Compound: O=C(CCCCCCNC(=O)c1ccc(NC(=O)CCCCCCCNC(=O)COc2cccc3c2C(=O)N(C2CCC(=O)NC2=O)C3=O)cc1)NO (configuration not stated)
- Activity (MM1.S): 94.5%
- IC50 [1]: 164 nM
- viability at 72 h, 50 µM [3]: > 50%

Compound: CCNNC(=O)c1ccc(CNC(=O)c2ccc(NC(=O)CCCCCCCNc3cc4c(cc3F)C(=O)N(C3CCC(=O)NC3=O)C4=O)cc2)cc1 (configuration not stated)
- IC50 [1]: 238 nM
- IC50 at 72 h [2]: 18400 nM

Compound: CCNNC(=O)c1ccc(CNC(=O)c2ccc(NC(=O)CCCCCCC(=O)N[C@H](C(=O)N3C[C@H](O)C[C@H]3C(=O)NCc3ccc(-c4scnc4C)cc3)C(C)(C)C)cc2)cc1
- IC50 [1]: 126 nM
- viability at 72 h, 50 µM [3]: > 50%

Compound: CCNNC(=O)c1ccc(CNC(=O)c2ccc(OCc3cn(CCOCCC(=O)N[C@H](C(=O)N4C[C@H](O)C[C@H]4C(=O)NCc4ccc(-c5scnc5C)cc4)C(C)(C)C)nn3)cc2)cc1
- IC50 [1]: 244 nM
- viability at 72 h, 50 µM [3]: > 50%

Compound: CCNNC(=O)c1ccc(CNC(=O)c2ccc(NC(=O)COCCOCCNc3cc4c(cc3F)C(=O)N(C3CCC(=O)NC3=O)C4=O)cc2)cc1 (configuration not stated)
- IC50 [1]: 378 nM
- viability at 72 h, 50 µM [3]: > 50%

Compound: O=C(CCCCCCC(=O)Nc1ccccc1)NO [VORINOSTAT]
- IC50 at 72 h [2]: 800 nM

Compound: CCNNC(=O)c1ccc(CNC(=O)c2ccc(OCc3cn(CCCCCC(=O)N[C@H](C(=O)N4C[C@H](O)C[C@H]4C(=O)NCc4ccc(-c5scnc5C)cc4)C(C)(C)C)nn3)cc2)cc1
- IC50 [1]: 417 nM
- viability at 72 h, 50 µM [3]: > 50%

Compound: CCNNC(=O)c1ccc(CNC(=O)c2ccc(OCc3cn(CCCCCCNc4cc5c(cc4F)C(=O)N(C4CCC(=O)NC4=O)C5=O)nn3)cc2)cc1 (configuration not stated)
- IC50 [1]: 611 nM
- viability at 72 h, 50 µM [3]: > 50%

Compound: CCNNC(=O)c1ccc(CNC(=O)c2ccc(OCc3cn(CCCCCCNc4cc5c(cc4F)C(=O)N(C4CCC(=O)N(C)C4=O)C5=O)nn3)cc2)cc1 (configuration not stated)
- IC50 [1]: 537 nM
- viability at 72 h, 50 µM [3]: > 50%

Compound: CCNNC(=O)c1ccc(CNC(=O)c2ccc(NC(=O)COCCOCC(=O)N[C@H](C(=O)N3C[C@H](O)C[C@H]3C(=O)NCc3ccc(-c4scnc4C)cc3)C(C)(C)C)cc2)cc1
- IC50 [1]: 729 nM
- viability at 72 h, 50 µM [3]: > 50%
